From patent publication US4791118A, “Quinolonecarboxylic acid derivatives and their preparation” (Kyorin Pharmaceutical Co., Ltd., priority 1985, dated 1988)
Values after ≈ are worked out from the molar mass of the structure shown. Where two headings read alike, the source gives them in different places.

Key:
[1] = system: E. faecalis 604; assay: MIC, clinical isolates; assay type: cell-based; details: Enterococcus faecalis; clinical isolate E. faecalis 604; 10^6 cells/ml
[2] = system: S. pneumoniae 17; assay: MIC, clinical isolates; assay type: cell-based; details: Streptococcus pneumoniae; clinical isolate S. pneumoniae 17; 10^6 cells/ml
[3] = system: S. pneumoniae 3727; assay: MIC, clinical isolates; assay type: cell-based; details: Streptococcus pneumoniae; clinical isolate S. pneumoniae 3727; 10^6 cells/ml
[4] = system: Staphylococcus aureus 209 P; assay: microbe, parasite or virus in culture
[5] = system: F. varium KYA 8501; assay: microbe, parasite or virus in culture; details: Fusobacterium varium, KYA8501
[6] = system: P. aeruginosa IFO 12689; assay: MIC, aerobic bacteria; assay type: cell-based; details: Pseudomonas aeruginosa, IFO12689, Gram -, 10^6 cells/ml
[7] = system: P. aeruginosa IID 1210; assay: MIC, aerobic bacteria; assay type: cell-based; details: Pseudomonas aeruginosa, IID1210, Gram -, 10^6 cells/ml
[8] = system: S. aureus Smith; assay: microbe, parasite or virus in culture; details: Staphylococcus aureus
[9] = system: Propionibacterium acens 11828; assay: MIC, anaerobic bacteria; assay type: cell-based
[10] = system: P. mirabilis IID 992; assay: MIC, aerobic bacteria; assay type: cell-based; details: Proteus mirabilis, IID992, Gram -, 10^6 cells/ml
From the text: (§1) | Organism (10^6 cells/ml)

[11] = system: Morganella morganii IID 602; assay: MIC, aerobic bacteria; assay type: cell-based; details: IID602, Gram -, 10^6 cells/ml
From the text: as §1

[12] = system: E. coli ATCC 10536; assay: MIC, aerobic bacteria; assay type: cell-based; details: Escherichia coli, ATCC10536, Gram -, 10^6 cells/ml
From the text: as §1

[13] = system: S. aureus IID 670 (Terajima); assay: MIC, aerobic bacteria; assay type: cell-based; details: Staphylococcus aureus, IID670, Gram +, 10^6 cells/ml
From the text: as §1

[14] = system: Serratia marcescens IID 618; assay: MIC, aerobic bacteria; assay type: cell-based; details: IID618, Gram -, 10^6 cells/ml
From the text: as §1

[15] = system: Acinetobacter anitratus IID 876; assay: MIC, aerobic bacteria; assay type: cell-based; details: Acinetobacter calcoaceticus, IID876, Gram -, 10^6 cells/ml
From the text: as §1

[16] = system: Proteus vulgaris IFO 3167; assay: MIC, aerobic bacteria; assay type: cell-based; details: IFO3167, Gram -, 10^6 cells/ml
From the text: as §1

[17] = system: Escherichia coli NIHJ JC-2; assay: MIC, aerobic bacteria; assay type: cell-based; details: NIHJJC2, Gram -, 10^6 cells/ml
From the text: as §1

[18] = system: S. epidermidis IID 866; assay: MIC, aerobic bacteria; assay type: cell-based; details: Staphylococcus epidermidis, IID866, Gram +, 10^6 cells/ml
From the text: as §1

[19] = system: Klebsiella pneumoniae KY(GN)6445; assay: MIC, aerobic bacteria; assay type: cell-based; details: Gram -, 10^6 cells/ml
From the text: as §1

[20] = system: Citrobacter freundii IID 976; assay: MIC, aerobic bacteria; assay type: cell-based; details: IID976, Gram -, 10^6 cells/ml
From the text: as §1

[21] = system: S. pneumoniae 4288; assay: MIC, clinical isolates; assay type: cell-based; details: Streptococcus pneumoniae; clinical isolate S. pneumoniae 4288; 10^6 cells/ml
[22] = system: S. agalactiae 4470; assay: MIC, clinical isolates; assay type: cell-based; details: Streptococcus agalactiae; clinical isolate S. agalactiae 4470; 10^6 cells/ml
[23] = system: C. perfringens KYA 13123; assay: microbe, parasite or virus in culture; assay type: cell-based; details: Clostridium perfringens, KYA13123
[24] = system: S. pneumoniae IID 552; assay: MIC, aerobic bacteria; assay type: cell-based; details: Streptococcus pneumoniae, IID552, Gram +, 10^6 cells/ml
[25] = system: S. agalactiae 4394; assay: microbe, parasite or virus in culture; details: Streptococcus agalactiae
[26] = system: Streptococcus pyogenes (S-8); assay: MIC, aerobic bacteria; assay type: cell-based; details: Gram +, 10^6 cells/ml
[27] = system: S. pneumoniae 2950; assay: MIC, clinical isolates; assay type: cell-based; details: Streptococcus pneumoniae; clinical isolate S. pneumoniae 2950; 10^6 cells/ml
[28] = system: Alcaligenes faecalis 0114002; assay: MIC, aerobic bacteria
[29] = system: S. agalactiae 4049; assay: MIC, clinical isolates; assay type: cell-based; details: Streptococcus agalactiae; clinical isolate S. agalactiae 4049; 10^6 cells/ml
[30] = system: S. agalactiae 4468; assay: MIC, clinical isolates; assay type: cell-based; details: Streptococcus agalactiae; clinical isolate S. agalactiae 4468; 10^6 cells/ml
[31] = system: B. thetaiotaomicron (0661); assay: MIC, anaerobic bacteria; assay type: cell-based; details: Bacteroides thetaiotaomicron, Gram -, 10^6 cells/ml
[32] = system: E. faecalis 214; assay: MIC, clinical isolates; assay type: cell-based; details: Enterococcus faecalis; clinical isolate E. faecalis 214; 10^6 cells/ml
[33] = system: S. pneumoniae 15; assay: MIC, clinical isolates; assay type: cell-based; details: Streptococcus pneumoniae; clinical isolate S. pneumoniae 15; 10^6 cells/ml
[34] = system: Salmonella enteritidis IID 604; assay: microbe, parasite or virus in culture; details: Salmonella enterica
[35] = system: E. faecalis 402; assay: microbe, parasite or virus in culture; details: Enterococcus faecalis
[36] = system: Shigella sonnei IID 969; assay: microbe, parasite or virus in culture; details: IID969
[37] = system: E. coli ML 4707; assay: MIC, aerobic bacteria; assay type: cell-based; details: Escherichia coli, ML4707, Gram -, 10^6 cells/ml
[38] = system: S. marcescens GN 7577; assay: MIC, aerobic bacteria; assay type: cell-based; details: Serratia marcescens, GN7577, Gram -, 10^6 cells/ml

Structure (SMILES)	MIC [1]	MIC [2]	MIC [3]	MIC [4]	MIC [5]	MIC [6]	MIC [7]	MIC [8]	MIC [10]	MIC [11]	MIC [12]	MIC [13]	MIC [14]	MIC [15]	MIC [16]	MIC [17]	MIC [18]	MIC [19]	MIC [20]	MIC [21]	further results
O=C(O)c1cn(C2CC2)c2c(F)c(N3CCC(CNCCF)C3)c(F)cc2c1=O (stereo not shown) [Exp. 2, 1-Cyclopropyl-7-[3-(2-fluoroethyl)aminomethyl-1-pyrrolidinyl]-6,8-difluoro-1,4-dihydro-4-oxo-3-quinolinecarboxylic acid]	0.1 µg/mL (≈ 0.244 µM)	0.05 µg/mL (≈ 0.122 µM)	0.05 µg/mL (≈ 0.122 µM)	0.0125 µg/mL (≈ 0.0305 µM)	0.78 µg/mL (≈ 1.91 µM)	1.56 µg/mL (≈ 3.81 µM)	1.56 µg/mL (≈ 3.81 µM)	0.0125 µg/mL (≈ 0.0305 µM)	0.05 µg/mL (≈ 0.122 µM)	0.2 µg/mL (≈ 0.489 µM)	0.025 µg/mL (≈ 0.0611 µM)	0.025 µg/mL (≈ 0.0611 µM)	0.2 µg/mL (≈ 0.489 µM)	0.05 µg/mL (≈ 0.122 µM)	0.05 µg/mL (≈ 0.122 µM)	0.025 µg/mL (≈ 0.0611 µM)	0.025 µg/mL (≈ 0.0611 µM)	0.05 µg/mL (≈ 0.122 µM)	0.05 µg/mL (≈ 0.122 µM)	0.05 µg/mL (≈ 0.122 µM)	MIC ([9]; Propionibacterium acens 11828, anaerobic, Gram +, 10^6 cells/ml, read-out: MIC): 1.56 µg/mL (≈ 3.81 µM); MIC [22]: 0.05 µg/mL (≈ 0.122 µM); MIC [23]: 0.1 µg/mL (≈ 0.244 µM); MIC [24]: 0.05 µg/mL (≈ 0.122 µM); MIC [25]: 0.1 µg/mL (≈ 0.244 µM); MIC [26]: 0.05 µg/mL (≈ 0.122 µM); MIC [27]: 0.05 µg/mL (≈ 0.122 µM); MIC [28]: 0.39 µg/mL (≈ 0.953 µM); MIC [29]: 0.05 µg/mL (≈ 0.122 µM); MIC [30]: 0.05 µg/mL (≈ 0.122 µM); MIC [31]: 0.78 µg/mL (≈ 1.91 µM); MIC [32]: 0.05 µg/mL (≈ 0.122 µM); MIC [33]: 0.05 µg/mL (≈ 0.122 µM); MIC [34]: 0.1 µg/mL (≈ 0.244 µM); MIC [35]: 0.1 µg/mL (≈ 0.244 µM); MIC [36]: 0.0125 µg/mL (≈ 0.0305 µM); MIC [37]: 0.025 µg/mL (≈ 0.0611 µM); MIC [38]: 1.56 µg/mL (≈ 3.81 µM)
O=C(O)c1cn(C2CC2)c2c(Cl)c(N3CCC(CNCCF)C3)c(F)cc2c1=O (stereo not shown) [Exp. 1, 8-Chloro-1-cyclopropyl-6-fluoro-7-[3-(2-fluoroethyl)aminomethyl-1-pyrrolidinyl]-1,4-dihydro-4-oxo-3-quinolinecarboxylic acid]	0.05 µg/mL (≈ 0.117 µM)	0.025 µg/mL (≈ 0.0587 µM)	0.025 µg/mL (≈ 0.0587 µM)	≤ 0.0063 µg/mL	0.39 µg/mL (≈ 0.916 µM)	1.56 µg/mL (≈ 3.66 µM)	1.56 µg/mL (≈ 3.66 µM)	≤ 0.0063 µg/mL	0.025 µg/mL (≈ 0.0587 µM)	0.1 µg/mL (≈ 0.235 µM)	0.0125 µg/mL (≈ 0.0294 µM)	≤ 0.0063 µg/mL	0.1 µg/mL (≈ 0.235 µM)	0.05 µg/mL (≈ 0.117 µM)	0.025 µg/mL (≈ 0.0587 µM)	0.0125 µg/mL (≈ 0.0294 µM)	0.0125 µg/mL (≈ 0.0294 µM)	0.05 µg/mL (≈ 0.117 µM)	0.05 µg/mL (≈ 0.117 µM)	0.025 µg/mL (≈ 0.0587 µM)	MIC ([9]; Propionibacterium, 11828): 0.78 µg/mL (≈ 1.83 µM); MIC [22]: 0.025 µg/mL (≈ 0.0587 µM); MIC [23]: ≤ 0.05 µg/mL; MIC [24]: 0.025 µg/mL (≈ 0.0587 µM); MIC [25]: 0.1 µg/mL (≈ 0.235 µM); MIC [26]: 0.025 µg/mL (≈ 0.0587 µM); MIC [27]: 0.025 µg/mL (≈ 0.0587 µM); MIC [28]: 0.39 µg/mL (≈ 0.916 µM); MIC [29]: 0.025 µg/mL (≈ 0.0587 µM); MIC [30]: 0.025 µg/mL (≈ 0.0587 µM); MIC [31]: 0.2 µg/mL (≈ 0.47 µM); MIC [32]: 0.05 µg/mL (≈ 0.117 µM); MIC [33]: 0.025 µg/mL (≈ 0.0587 µM); MIC [34]: 0.1 µg/mL (≈ 0.235 µM); MIC [35]: 0.1 µg/mL (≈ 0.235 µM); MIC [36]: 0.0125 µg/mL (≈ 0.0294 µM); MIC [37]: 0.0125 µg/mL (≈ 0.0294 µM); MIC [38]: 1.56 µg/mL (≈ 3.66 µM)
